# Measurements reported in article PMC7987348, “Structural basis for human TRPC5 channel inhibition by two distinct inhibitors” (eLife, 2021).
# Legend:
# TRPC5 [1] = test system: TRPC5; design: method as in Richter et al., 2014; Zhou et al., 2017; Zhu et al., 2015; conditions: ref Richter et al., 2014; Zhou et al., 2017; Zhu et al., 2015; read-out: IC50 for inhibition of TRPC5; cited from earlier work
# TRPC5 [2] = test system: TRPC5; design: method as in Minard et al., 2019; conditions: ref Minard et al., 2019; read-out: EC50 as TRPC5 activator; cited from earlier work
# [3] = biological target: the molecule itself; experiment: cryo-EM structure; purified hTRPC5(1-764) in GDN micelles with 100 uM Ca2+ plus 500 uM CMZ, 50 uM HC-070 or EA (EA not seen, 'apo'); graphene oxide grids; C4 symmetry imposed in refinement
# [4] = biological target: the molecule itself; experiment: SEC; fluorescence-detection SEC (FSEC) of transfected HEK293F cells solubilised in 1% LMNG, 0.1% CHS in TBS (20 mM Tris-HCl pH 8.0, 150 mM NaCl), 4°C; Superose-6 Increase
molecule,measurement,setting,value
c1ccc(Cn2c(NCc3ccco3)nc3ccccc32)cc1 [AC1903],IC50,TRPC5 [1],14.7 µM
Cn1c(=O)n(CCCO)c(=O)c2c1nc(Oc1ccc(Cl)c(OC(F)(F)F)c1)n2Cc1ccc(Cl)cc1 [AM237],EC50,TRPC5 [2],0.015 to 0.02 µM
"human TRPC5 residues 1-764 (hTRPC5_(1-764)), purified tetrameric channel (domain or fragment, UniProt Q9UL62 1-764, looked up, human TRPC5 (transient receptor potential canonical 5), C-terminally truncated construct, residues 1-764; That this removes the GFP-MBP tag is surmised; also called apo hTRPC5; source: HEK293F, BacMam baculovirus infection, purified (MBP resin, H3C protease digestion, Superose-6 Increase SEC in GDN); not shown: GFP, N-terminal, cleaved; MBP, N-terminal, cleaved) MAQLYYKKVNYSPYRDRIPLQIVRAETELSAEEKAFLNAVEKGDYATVKQALQEAEIYYNVNINCMDPLGRSALLIAIENENLEIMELLLNHSVYVGDALLYAIRKEVVGAVELLLSYRRPSGEKQVPTLMMDTQFSEFTPDITPIMLAAHTNNYEIIKLLVQKRVTIPRPHQIRCNCVECVSSSEVDSLRHSRSRLNIYKALASPSLIALSSEDPILTAFRLGWELKELSKVENEFKAEYEELSQQCKLFAKDLLDQARSSRELEIILNHRDDHSEELDPQKYHDLAKLKVAIKYHQKEFVAQPNCQQLLATLWYDGFPGWRRKHWVVKLLTCMTIGFLFPMLSIAYLISPRSNLGLFIKKPFIKFICHTASYLTFLFMLLLASQHIVRTDLHVQGPPPTVVEWMILPWVLGFIWGEIKEMWDGGFTEYIHDWWNLMDFAMNSLYLATISLKIVAYVKYNGSRPREEWEMWHPTLIAEALFAISNILSSLRLISLFTANSHLGPLQISLGRMLLDILKFLFIYCLVLLAFANGLNQLYFYYETRAIDEPNNCKGIRCEKQNNAFSTLFETLQSLFWSVFGLLNLYVTNVKARHEFTEFVGATMFGTYNVISLVVLLNMLIAMMNNSYQLIADHADIEWKFARTKLWMSYFDEGGTLPPPFNIIPSPKSFLYLGNWFNNTFCPKRDPDGRRRRRNLRSFTERNADSLIQNQHYQEVIRNLVKRYVAAMIRNSKTHEGLTEENFKELKQDISSFRYEVLDLLGNR",stoichiometry N,[3],4
"GFP-MBP-tagged human TRPC5 residues 1-764 (hTRPC5_(1-764)) as screened by FSEC (domain or fragment, UniProt Q9UL62 1-764, looked up, human TRPC5 (transient receptor potential canonical 5), C-terminally truncated construct, residues 1-764; Same construct as m1, but uncleaved and unpurified; It is detected by the fluorescence of its GFP tag in FSEC; source: HEK293F, transfected (PEI), solubilised in LMNG/CHS, in supernatant; not shown: GFP, N-terminal, kept; MBP, N-terminal, kept) MAQLYYKKVNYSPYRDRIPLQIVRAETELSAEEKAFLNAVEKGDYATVKQALQEAEIYYNVNINCMDPLGRSALLIAIENENLEIMELLLNHSVYVGDALLYAIRKEVVGAVELLLSYRRPSGEKQVPTLMMDTQFSEFTPDITPIMLAAHTNNYEIIKLLVQKRVTIPRPHQIRCNCVECVSSSEVDSLRHSRSRLNIYKALASPSLIALSSEDPILTAFRLGWELKELSKVENEFKAEYEELSQQCKLFAKDLLDQARSSRELEIILNHRDDHSEELDPQKYHDLAKLKVAIKYHQKEFVAQPNCQQLLATLWYDGFPGWRRKHWVVKLLTCMTIGFLFPMLSIAYLISPRSNLGLFIKKPFIKFICHTASYLTFLFMLLLASQHIVRTDLHVQGPPPTVVEWMILPWVLGFIWGEIKEMWDGGFTEYIHDWWNLMDFAMNSLYLATISLKIVAYVKYNGSRPREEWEMWHPTLIAEALFAISNILSSLRLISLFTANSHLGPLQISLGRMLLDILKFLFIYCLVLLAFANGLNQLYFYYETRAIDEPNNCKGIRCEKQNNAFSTLFETLQSLFWSVFGLLNLYVTNVKARHEFTEFVGATMFGTYNVISLVVLLNMLIAMMNNSYQLIADHADIEWKFARTKLWMSYFDEGGTLPPPFNIIPSPKSFLYLGNWFNNTFCPKRDPDGRRRRRNLRSFTERNADSLIQNQHYQEVIRNLVKRYVAAMIRNSKTHEGLTEENFKELKQDISSFRYEVLDLLGNR",stoichiometry N,[4],4
